Consider nine molecules from article PMC9502993 (Pharmaceuticals, 2022).

Where two headings read alike, the source gives them in different places.

The subject of data set [1] is Caco-2 cell barrier. As to the kind of experiment: Cell barrier integrity (TEER, cellZscope2). Format: cell-based. The conditions noted are these: 10 mM, positive control.
The subject of the next data set is primary immune cells. The conditions noted are these: primary immune cells ref 9; cited from earlier work.
The subject of data set [2] is HEK293T cells. As to the kind of experiment: Ca2+-release assay (Fluo-8-AM), GPCR off-target. Format: cell-based. As to conditions: 10 µM ionomycin, positive control. On the procedure:
Next, 50,000 HEK293T cells were seeded in a 96-well poly-D-lysine-coated plate and incubated at 37 °C for 24 h. Cells were incubated with 4 µM Fluo-8-AM in HBSS for 1 h at 37 °C. After 1 h, the Fluo-8/HBSS was replaced by 100 µL HBSS. Five images per second were taken using an ImageXpress Micro Confocal High Content Imaging System (Molecular Device, San Jose, CA, USA). […] An image was taken every second for the next 20 s. The MetaXpress Software Version 6.7.1.157 (San Jose, CA, USA) was used to analyze the data. A threshold of fluorescence intensity was defined using cells before treatment and all cells with a fluorescence signal above the threshold level were counted and related to all cells.

The subject of data set [3] is HEK293T cells. In words: IP3 assay, GPCR off-target. Format: cell-based. As to conditions: 10 µM ionomycin, positive control.
In another data set the test system is HepG2 cells. As to the kind of experiment: In Vitro Micronuclei Plus assay (flow cytometry). (In general: A flow cytometer gives signals particle by particle.)
In data set [4] the test system is Caco-2 cell barrier. As to conditions: human, 200 µM.
A further data set has as its system Calu-3 cell barrier. As to conditions: human, 24 h, 200 µM.
The subject of another data set is MDA-MB-231 cell line. Details: method as in PMID 32470302. The conditions noted are these: MDA-MB-231, 100 nM ref 39; cited from earlier work.
In another data set the test system is Calu-3 cells. As to conditions: human, 25 µM.
A short description of data set [5]: Stability assay in human liver microsomes. Format: in vitro ADME. As to conditions: pH 7.4, human liver microsomes 0.5 mg/mL, 10 µM. Here is the method: The reaction was started with 1 mM NADPH diluted in potassium phosphate buffer. As control, samples without NAPDH were used. After various time points (0 h, 1 h, 2 h, 4 h), the reaction was stopped by adding ice-cold acetonitrile. The samples were centrifuged (5 min, 4 °C, 10,000× g) and supernatant was stored at −80 °C until the remaining drug concentration was determined by LC-MS/MS as described in detail below. The concentrations of the drugs were plotted against time and the elimination constant (k) was calculated from the slope (m):m = −k
Equation to determine half-life:T1/2 = 0.693/K
Equation to determine intrinsic clearance:Cl = Ln(2) × 1000/T1/2/protein concentration

For the next data set, the target named is T1, P-glycoprotein (Homo sapiens, UniProt P08183).
T1 construct: endogenous in cells; host or cells: Caco-2 (high P-gp), Calu-3 (low P-gp)
T1 sequence (P08183 whole entry): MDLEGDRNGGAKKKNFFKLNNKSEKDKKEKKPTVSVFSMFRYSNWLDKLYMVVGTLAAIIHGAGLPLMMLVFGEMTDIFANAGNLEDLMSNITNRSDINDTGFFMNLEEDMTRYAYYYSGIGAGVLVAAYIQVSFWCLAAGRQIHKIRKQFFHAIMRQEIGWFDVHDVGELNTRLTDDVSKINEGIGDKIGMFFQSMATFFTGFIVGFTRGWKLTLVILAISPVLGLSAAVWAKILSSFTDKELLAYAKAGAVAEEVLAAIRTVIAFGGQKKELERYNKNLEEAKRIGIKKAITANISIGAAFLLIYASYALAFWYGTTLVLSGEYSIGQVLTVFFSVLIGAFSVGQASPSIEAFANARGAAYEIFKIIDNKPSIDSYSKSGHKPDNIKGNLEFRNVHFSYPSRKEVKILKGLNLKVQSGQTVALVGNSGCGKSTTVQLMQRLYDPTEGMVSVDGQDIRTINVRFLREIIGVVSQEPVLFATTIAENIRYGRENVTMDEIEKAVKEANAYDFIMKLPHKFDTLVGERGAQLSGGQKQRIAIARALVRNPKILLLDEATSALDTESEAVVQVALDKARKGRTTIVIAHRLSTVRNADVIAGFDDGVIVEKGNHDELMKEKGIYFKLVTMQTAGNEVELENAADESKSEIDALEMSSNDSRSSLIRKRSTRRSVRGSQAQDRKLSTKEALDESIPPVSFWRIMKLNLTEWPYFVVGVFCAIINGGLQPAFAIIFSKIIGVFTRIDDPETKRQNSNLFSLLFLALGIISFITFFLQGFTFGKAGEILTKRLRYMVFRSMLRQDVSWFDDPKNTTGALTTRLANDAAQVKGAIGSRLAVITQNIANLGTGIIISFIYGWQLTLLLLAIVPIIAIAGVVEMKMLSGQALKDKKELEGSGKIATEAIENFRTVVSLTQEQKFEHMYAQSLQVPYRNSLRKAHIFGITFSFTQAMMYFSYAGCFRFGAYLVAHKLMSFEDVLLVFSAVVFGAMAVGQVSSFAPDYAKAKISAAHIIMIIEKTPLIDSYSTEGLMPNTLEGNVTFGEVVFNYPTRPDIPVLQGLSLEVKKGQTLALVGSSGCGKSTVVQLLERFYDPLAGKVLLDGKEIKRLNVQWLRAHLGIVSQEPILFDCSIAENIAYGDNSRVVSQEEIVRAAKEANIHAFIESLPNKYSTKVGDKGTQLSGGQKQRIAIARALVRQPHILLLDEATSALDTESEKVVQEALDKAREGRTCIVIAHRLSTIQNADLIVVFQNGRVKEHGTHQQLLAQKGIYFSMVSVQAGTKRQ
As to conditions: cited from earlier work.

Another data set relates to Caco-2 cells. As to conditions: human, 25 µM.
The test system of data set [6] is HEK293T cells. In words: cAMP assay (GloSensor luciferase), GPCR off-target. The conditions noted are these: 5 µM forskolin, positive control. Background: Cyclic AMP is a second messenger, typically raised through Gs and lowered through Gi signalling.

In the case of `O=C(O)CN(CCOCCOCCN(CC(=O)O)CC(=O)O)CC(=O)O` [EGTA, reference compound], the “effect on TEER readings (cell barrier integrity)” value with Caco-2 cell barrier [1] is “caused a drop in TEER readings”.
With `CONC(=O)[C@H]1[C@@H](O)[C@@]2(O)c3c(OC)cc(OC)cc3O[C@@]2(c2ccc(OC)cc2)[C@@H]1c1ccccc1` [CR31B (-)], in the data set on primary immune cells, the “cytotoxicity compared with silvestrol” value is given as “comparable cytotoxic effects to those of silvestrol”.
As for `C[C@H](CCC(=O)O)C[C@H](C)C[C@H](C)C(=O)/C=C(\O)[C@H](C)C[C@H](C)C/C=C/[C@@H](C)[C@@H](O)[C@@H](C)[C@@H](O)C[C@@H]1CC[C@@](C)([C@H]2CC[C@@](C)([C@@H](C)O)O2)O1` [ionomycin, reference compound], the “induction of Ca2+-release” value in the data set on HEK293T cells [2] is recorded as “induced significant increases”. Further, the “induction of IP3 synthesis” value in the data set with HEK293T cells [3] is “induced significant increases”.
`CC(C)Cc1ccc(C(C)C(=O)O)cc1` (stereo not drawn) [ibuprofen, reference compound]: in the data set with HepG2 cells (positive and negative control), the “genotoxicity by the criteria of OECD guideline 487” value was “no effects”.
On to `NC(=O)N1c2ccccc2C=Cc2ccccc21` [carbamazepine], for which the transport rate entry is “approx. 45%” with Caco-2 cell barrier [4] (4 h) and 74% with Calu-3 cell barrier.
For the molecule `COc1cc2c(c(OC)n1)[C@]1(O)[C@H](O)[C@H](CN(C)C)[C@@H](c3ccccc3)[C@]1(c1ccc(C#N)cc1)O2` [zotatifin, reference compound], the “effect on cell cycle and apoptosis” value in the data set with MDA-MB-231 cell line is “induces a G2 cell cycle block and apoptosis”. Further, the “clastogenic effects (micronuclei)” value in the data set with HepG2 cells (10 nM only, not concentration dependent) is “some clastogenic and aneugenic effects”.
What is called half-life is the time needed for the level to fall by half in the phase considered. For the molecule `Cc1ccc(-c2cc(C(F)(F)F)nn2-c2ccc(S(N)(=O)=O)cc2)cc1` [celecoxib, reference compound], the uptake rate entry in the data set on Calu-3 cells and in the data set on Caco-2 cells was “about 2.5 ng/µg protein” throughout. In data set [5], the half-life at 10 µM was 2.3 ± 0.5 h. In addition, the microsomal CLint at 10 µM in [5] (read-out: intrinsic clearance) came to 10.5 ± 2 µL/min/mg. For the same molecule, the “substrate of P-glycoprotein” value at P-glycoprotein was “not a substrate of P-glycoprotein”.
For `C=C[C@@]1(C)CC(=O)[C@]2(O)[C@@]3(C)[C@@H](O)CCC(C)(C)[C@@H]3[C@H](O)[C@H](OC(C)=O)[C@@]2(C)O1` [forskolin, reference compound], in the data set on HEK293T cells [6], the “induction of cAMP formation” value is listed as “induced significant increases”.
With `NC(N)=Nc1nc(CSCCC(N)=NS(N)(=O)=O)cs1` [famotidine], the transport rate with Caco-2 cell barrier [4] (4 h) was 0.7%; in the data set with Caco-2 cell barrier [4] (24 h) it was 1.3%; with Calu-3 cell barrier, 8.3%.
